Data taken from PubChem BioAssay (NCI).
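Five concentrations, 48 hours, 96-well plates. At the GI50, growth is halved. TGI is the concentration that stops growth completely.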

Experiments:
Assay in all cases: NCI tumour cell line growth inhibition, 48 h
SF-539 CNS = system: SF-539 CNS
K-562 leukemia = system: K-562 leukemia
SW-620 colon = system: SW-620 colon
UO-31 renal = system: UO-31 renal
SK-MEL-28 melanoma = system: SK-MEL-28 melanoma
TK-10 renal = system: TK-10 renal
UACC-257 melanoma = system: UACC-257 melanoma
SN12C renal = system: SN12C renal
SNB-19 CNS = system: SNB-19 CNS
CCRF-CEM leukemia = system: CCRF-CEM leukemia
SK-MEL-2 melanoma = system: SK-MEL-2 melanoma
KM12 colon = system: KM12 colon
SF-268 CNS = system: SF-268 CNS
HCT-15 colon = system: HCT-15 colon
HT29 colon = system: HT29 colon
OVCAR-5 ovarian = system: OVCAR-5 ovarian
SNB-75 CNS = system: SNB-75 CNS
A549 NSCLC = system: A549 NSCLC
HS 578T breast = system: HS 578T breast
MCF7 breast = system: MCF7 breast
M14 melanoma = system: M14 melanoma
NCI-H460 lung = system: NCI-H460 lung
EKVX NSCLC = system: EKVX NSCLC
786-0 renal = system: 786-0 renal
HCC-2998 colon = system: HCC-2998 colon
CAKI-1 renal = system: CAKI-1 renal
BT-549 breast = system: BT-549 breast
IGROV1 ovarian = system: IGROV1 ovarian
NCI-H23 lung = system: NCI-H23 lung
HOP-92 NSCLC = system: HOP-92 NSCLC
PC-3 prostate = system: PC-3 prostate
RXF 393 renal = system: RXF 393 renal
HCT-116 colon = system: HCT-116 colon
COLO 205 colon = system: COLO 205 colon
U251 CNS = system: U251 CNS
SK-MEL-5 melanoma = system: SK-MEL-5 melanoma
T-47D breast = system: T-47D breast
HL-60(TB) leukemia = system: HL-60(TB) leukemia
MDA-MB-435 = system: MDA-MB-435
MOLT-4 leukemia = system: MOLT-4 leukemia
NCI-H226 lung = system: NCI-H226 lung
NCI/ADR-RES ovarian = system: NCI/ADR-RES ovarian
MALME-3M melanoma = system: MALME-3M melanoma
HOP-62 NSCLC = system: HOP-62 NSCLC
MDA-MB-231 breast = system: MDA-MB-231 breast
SK-OV-3 ovarian = system: SK-OV-3 ovarian
SR leukemia = system: SR leukemia
DU-145 prostate = system: DU-145 prostate
OVCAR-8 ovarian = system: OVCAR-8 ovarian
A498 renal = system: A498 renal
OVCAR-4 ovarian = system: OVCAR-4 ovarian
NCI-H522 lung = system: NCI-H522 lung
UACC-62 melanoma = system: UACC-62 melanoma

C#CCNC1CCC(c2csc(C#C)n2)=C1C (stereo unspecified)
GI50 (SF-539 CNS): 1.75 µM | TGI (SF-539 CNS): 3.28 µM | GI50 (K-562 leukemia): 3.95 µM | TGI (K-562 leukemia): > 100 µM | GI50 (SW-620 colon): 8 µM | TGI (SW-620 colon): 27.8 µM | GI50 (UO-31 renal): 0.136 µM | TGI (UO-31 renal): 0.306 µM | GI50 (SK-MEL-28 melanoma): 25.1 µM | TGI (SK-MEL-28 melanoma): > 100 µM | GI50 (TK-10 renal): > 100 µM | TGI (TK-10 renal): > 100 µM | GI50 (UACC-257 melanoma): 32.1 µM | TGI (UACC-257 melanoma): > 100 µM | GI50 (SN12C renal): 3.94 µM | TGI (SN12C renal): > 100 µM | GI50 (SNB-19 CNS): 4.33 µM | TGI (SNB-19 CNS): > 100 µM | GI50 (CCRF-CEM leukemia): 0.922 µM | TGI (CCRF-CEM leukemia): 4.94 µM | GI50 (SK-MEL-2 melanoma): 24.8 µM | TGI (SK-MEL-2 melanoma): > 100 µM | GI50 (KM12 colon): 9.09 µM | TGI (KM12 colon): > 100 µM | GI50 (SF-268 CNS): 2.59 µM | TGI (SF-268 CNS): 8.27 µM | GI50 (HCT-15 colon): 6.66 µM | TGI (HCT-15 colon): 22.7 µM | GI50 (HT29 colon): 2.88 µM | TGI (HT29 colon): 10.3 µM | GI50 (OVCAR-5 ovarian): 4.77 µM | TGI (OVCAR-5 ovarian): > 100 µM | GI50 (SNB-75 CNS): 1.05 µM | TGI (SNB-75 CNS): 2.24 µM | GI50 (A549 NSCLC): 10.3 µM | TGI (A549 NSCLC): > 100 µM | GI50 (HS 578T breast): 2.99 µM | TGI (HS 578T breast): 36.6 µM | GI50 (MCF7 breast): 3.41 µM | TGI (MCF7 breast): 18.3 µM | GI50 (M14 melanoma): 4.22 µM | TGI (M14 melanoma): 90.6 µM | GI50 (NCI-H460 lung): 4.65 µM | TGI (NCI-H460 lung): > 100 µM | GI50 (EKVX NSCLC): 2.51 µM | TGI (EKVX NSCLC): 46.9 µM | GI50 (786-0 renal): 0.195 µM | TGI (786-0 renal): 0.368 µM | GI50 (HCC-2998 colon): 13.3 µM | TGI (HCC-2998 colon): 28.6 µM | GI50 (CAKI-1 renal): 2.11 µM | TGI (CAKI-1 renal): 11.5 µM | GI50 (BT-549 breast): 1.8 µM | TGI (BT-549 breast): 3.58 µM | GI50 (IGROV1 ovarian): 0.183 µM | TGI (IGROV1 ovarian): 0.391 µM | GI50 (NCI-H23 lung): 0.469 µM | TGI (NCI-H23 lung): 1.87 µM | GI50 (HOP-92 NSCLC): 1.21 µM | TGI (HOP-92 NSCLC): 2.91 µM | GI50 (PC-3 prostate): 3.79 µM | TGI (PC-3 prostate): > 100 µM | GI50 (RXF 393 renal): 2.66 µM | TGI (RXF 393 renal): 9.49 µM | GI50 (HCT-116 colon): 4.79 µM | TGI (HCT-116 colon): 70.1 µM | GI50 (COLO 205 colon): 17.1 µM | TGI (COLO 205 colon): 39.1 µM | GI50 (U251 CNS): 2.3 µM | TGI (U251 CNS): 6 µM | GI50 (SK-MEL-5 melanoma): 7.98 µM | TGI (SK-MEL-5 melanoma): 24.2 µM | GI50 (T-47D breast): 3.88 µM | TGI (T-47D breast): > 100 µM | GI50 (HL-60(TB) leukemia): 2.3 µM | TGI (HL-60(TB) leukemia): 5.29 µM | GI50 (MDA-MB-435): 16 µM | TGI (MDA-MB-435): 67 µM | GI50 (MOLT-4 leukemia): 5.32 µM | TGI (MOLT-4 leukemia): 83.8 µM | GI50 (NCI-H226 lung): 11.4 µM | TGI (NCI-H226 lung): > 100 µM | GI50 (NCI/ADR-RES ovarian): 6.11 µM | TGI (NCI/ADR-RES ovarian): > 100 µM | GI50 (MALME-3M melanoma): 1.68 µM | TGI (MALME-3M melanoma): 3.37 µM | GI50 (HOP-62 NSCLC): 1.89 µM | TGI (HOP-62 NSCLC): 4.98 µM | GI50 (MDA-MB-231 breast): 1.56 µM | TGI (MDA-MB-231 breast): 3.98 µM | GI50 (SK-OV-3 ovarian): 2.57 µM | TGI (SK-OV-3 ovarian): 7.41 µM | GI50 (SR leukemia): 1.3 µM | TGI (SR leukemia): 8.24 µM | GI50 (DU-145 prostate): 5.97 µM | TGI (DU-145 prostate): > 100 µM | GI50 (OVCAR-8 ovarian): 3.06 µM | TGI (OVCAR-8 ovarian): > 100 µM | GI50 (A498 renal): 3.9 µM | TGI (A498 renal): 17.6 µM | GI50 (OVCAR-4 ovarian): 23.5 µM | TGI (OVCAR-4 ovarian): > 100 µM | GI50 (NCI-H522 lung): 1.83 µM | TGI (NCI-H522 lung): 3.85 µM | GI50 (UACC-62 melanoma): 9.74 µM | TGI (UACC-62 melanoma): > 100 µM
